Test results reported in patent publication US9897592B2, “Methods for identifying arthropod repellents and attractants, and compounds and compositions identified by such methods” (The Regents of the University of California, priority 2013, dated 2018).

Legend:
cpA neuron [1] = assay: Single-sensillum recording: activation of cpA neuron by odorants; assay type: cell-based, Aedes aegypti
Method in brief: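 Single-sensillum extracellular recordings from cp sensilla of adult female A. aegypti (Rockefeller), 3-12 days post-emergence. Odorants at 10^−2 in paraffin oil or water, 0.5-s pulses; solvent response subtracted, spikes counted; n=2-6, sensilla with <20 spikes s^−1 to negative control only.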

cpA neuron [2] = assay: cpA dose response in C. quinquefasciatus; assay type: cell-based, Culex quinquefasciatus
Experimental: FIG. 4d is a graph illustrating the dose responses of the cpA neuron to cyclopentanone in A. aegypti and C. quinquefasciatus, where n=5-6.
Adult female A. aegypti (Linnaeus 1762) (Rockefeller strain) A. gambiae sensu stricto Giles 1902 (G3 strain), or C. quinquefasciatus Say 1823 were tested 3-12 days post-emergence with single-sensillum extracellular recordings. Chemicals were obtained from Sigma-Aldrich at the highest purity (typically >99%) and were dissolved in paraffin oil or water. […] Response to clean beads was subtracted from the results reported. Only sensilla with cpA activity of <20 spikes s^−1 to negative control were considered for analysis.
Taken together, the strong and conserved cpA response, promising safety and fragrance profile, and ability to mimic CO2 activation made cyclopentanone an excellent candidate for behavioural testing.

C. quinquefasciatus = assay: Semi-field two-choice greenhouse trapping; assay type: in vivo, Culex quinquefasciatus
Source text: FIG. 4g is a schematic of two-choice greenhouse experiments with two counterflow geometry traps, in which mosquitoes were trapped overnight in odorant-baited and solvent (water)-baited traps.
Semi-field trapping: Two modified greenhouses at the Agricultural Experiment Station at the University of California, Riverside, were used as described previously^2, with modifications. Fifty laboratory-reared, mated, non-blood fed female C. quinquefasciatus aged 8-14 days and starved for 24 hrs were released each evening around 5 pm and traps collected at ˜7 am. Counter flow geometry traps baited with CO2 (250 ml min^−1, ˜670 mmol/hr) odorant were used as described^2, with modifications. Odorant solutions in water were dispensed from 20 cm long gauze wicks protruding from uncapped 50 ml tubes beneath the trap outflow. For each trial, one baited trap and one control trap (water-filled) were placed in each of two greenhouses (FIG. 4g). For two-choice CO2 trials, water was placed under both traps. For two-choice ethyl pyruvate trials, both traps expelled CO2, and one trap also released ethyl pyruvate from an open 2.8×7 cm glass vial. Since ethyl pyruvate has very low volatility pure compound was used to generate ˜1.7 mmol/hr. An empty vial was placed under control traps. Treatment position and trap were alternated across trials. Volume of solution lost from tubes containing 5%, 10%, or 20% cyclopentanone were measured after each trial and the average loss of molecules calculated respectively for 3 concentrations as (±s.d.) of 0.7 (±0.1), 1.7 (±0.4), and 3.8 (±0.3) mmol/hr, respectively. Preference index=(# mosquitoes in odor-baited trap−# mosquitoes in control trap)/(total # mosquitoes caught in both traps).
The efficacy of cyclopentanone as a lure was tested using traps in controlled semi-field experiments with C. quinquefasciatus, a mosquito present in Southern California, where the experiments took place. 50 female mosquitoes were released overnight in a modified greenhouse that contained two counter-flow geometry mosquito traps (FIG. 4g). One trap was baited with an evaporative lure of cyclopentanone diluted in water, and the second trap was baited with water alone.

[3] = tested on: mammalian cation channels; settings: cited from earlier work
[4] = target: human acetylcholinesterase (Homo sapiens, UniProt P22303); settings: cited from earlier work
human acetylcholinesterase, sequence (P22303 32-614): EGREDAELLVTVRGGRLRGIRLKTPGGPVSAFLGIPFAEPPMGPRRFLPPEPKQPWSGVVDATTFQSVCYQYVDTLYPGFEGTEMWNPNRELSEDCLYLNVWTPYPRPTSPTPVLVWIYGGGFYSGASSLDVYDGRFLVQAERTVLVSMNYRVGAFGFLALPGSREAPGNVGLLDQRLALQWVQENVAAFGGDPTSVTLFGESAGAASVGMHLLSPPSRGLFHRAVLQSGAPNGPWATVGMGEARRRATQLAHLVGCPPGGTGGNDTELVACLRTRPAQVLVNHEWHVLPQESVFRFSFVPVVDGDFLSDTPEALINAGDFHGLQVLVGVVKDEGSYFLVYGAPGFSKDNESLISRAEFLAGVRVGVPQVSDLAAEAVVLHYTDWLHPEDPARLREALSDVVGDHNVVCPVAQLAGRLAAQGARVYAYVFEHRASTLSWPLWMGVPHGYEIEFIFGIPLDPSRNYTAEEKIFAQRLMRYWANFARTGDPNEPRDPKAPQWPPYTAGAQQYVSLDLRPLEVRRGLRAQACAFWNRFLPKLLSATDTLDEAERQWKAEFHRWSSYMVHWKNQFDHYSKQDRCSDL

Row | Structure (SMILES) | Activation (spikes s^−1) (cpA neuron [1]; A. aegypti cpA, 0.5-s pulses, odorants 10^−2 in paraffin oil or water, solvent response subtracted) | cpA activation (cpA neuron [1]; A. aegypti dose response) | cpA activation (cpA neuron [2]) | fold fewer molecules released than CO2 for comparable catch rate (C. quinquefasciatus; calculated from amount evaporated) [fold] | trap preference, odorant-baited vs solvent-baited trap (C. quinquefasciatus; evaporative lure in water, overnight) | capture numbers relative to CO2-baited traps (C. quinquefasciatus; similar trials in parallel) | inhibition of mammalian cation channels [3] | inhibition of human acetylcholinesterase [4]
1 | O=C1CCCC1 [Cyclopentanone] | 120.1 | strong activator | strong activator | ~176 | preferred cyclopentanone over solvent-baited traps in a dose-dependent manner | comparable | – | –
2 | CCN(CC)C(=O)c1cccc(C)c1 [DEET, N,N-Diethyl-m-toluamide] | – | – | – | – | – | – | inhibit | inhibit
